In data set [1] the target is T1, Aβ(1-40) (Homo sapiens, UniProt P05067).
T1 construct: […]; purchased Bachem, Torrance, Calif
Briefly: BASST (Beta-Amyloid Self-Seeding, Thioflavin T), inhibitors of self-seeded amyloid fibril growth. Format: biochemical. The conditions noted are these: 30 μM soluble Aβ(1-40), 37° C., 3 to 5 hours, thioflavin T fluorescence; replicate values; letter = synthetic lot; read-out: BASST (IC50 = μM). In short, it runs like this:
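Self-seeded Aβ(1-40) fibril growth was run in 50 mM sodium phosphate pH 7.5, 100 mM NaCl, 0.02% NaN3, 1 M urea. Compounds were tested in 3-fold serial dilutions (top 100 μM final): 10 min on ice, then 3–5 h at 37 °C. Fibrils were read by 5 μM thioflavin T fluorescence (ex 440/em 485 nm).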

Another data set deals with T2, Aβ (1-42) (Homo sapiens, UniProt P05067).
T2 construct: Required Aβ (1-42) (California Peptide) was dried from its hexafluoroisopropanol (HFIP) stock solution; purchased California Peptide
T2 sequence (P05067 672-713 limits assumed): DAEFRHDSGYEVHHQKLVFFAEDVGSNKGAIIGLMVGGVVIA
Briefly: BATYM assay (Aβ (1-42) aggregation, Thioflavin T fluorescence). Format: biochemical. To be noted: Aβ 1-42 final concentration 100 μM, 37° C., 1 day, letter = synthetic lot. In short, it runs like this:
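Aβ (1-42) (100 μM final, PBS pH 7.4 from DMSO) incubated with compound at 37° C. for 1 day. Aggregation read by ThT (30 μM, glycine-NaOH pH 8.5) fluorescence, ex 440/em 485 nm; inhibition as fluorescence reduction corrected for compound-alone signal, IC50 by curve fitting from two experiments in triplicate.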

Data set [2] has as its target T1, Aβ(1-40). Briefly: BASSR (Beta-Amyloid Self-Seeding Radioassay), inhibitors of self-seeded amyloid fibril growth. Format: biochemical. The conditions noted are these: 30 μM soluble Aβ(1-40) + 125I-labeled Aβ(1-40), 37° C., 3 to 5 hours; replicate values; letter = synthetic lot; ppt = precipitate; V-shaped = inhibition followed by precipitation. In short, it runs like this:
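Self-seeded growth of ^125I-labeled Aβ(1-40) fibrils in 50 mM sodium phosphate pH 7.5, 100 mM NaCl, 0.02% NaN3, 1 M urea; compound (3-fold dilutions from 100 μM final) preincubated 10 min on ice, then 3–5 h at 37° C. Fibrils collected by vacuum filtration on 0.2 μm filters and counted for radioactivity.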

The target in another data set is T3, Aβ (1-40) peptide (Homo sapiens, UniProt P05067).
T3 construct: 10 μL 0.5 mg/mL Aβ (1-40) peptide in 20% HFIP
T3 sequence (P05067 672-711 limits assumed): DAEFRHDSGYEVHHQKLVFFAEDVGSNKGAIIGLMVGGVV
Briefly: BAPA (Beta-Amyloid Peptide Aggregation, pH 6.0, filtration). Type of data set: biochemical. To be noted: Aβ (1-40) 33 μM, pH 6.0, 2 to 4 hours at room temperature; replicate values; letter = synthetic lot. In short, it runs like this: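 Aggregation of human Aβ (1-40) peptide was measured in an endpoint filtration assay. The peptide was first reduced to monomer with hexafluoroisopropanol (HFIP), then used at 33 μM so it would aggregate at pH 6.0, and incubated for 2 to 4 hours at room temperature. Filter plates were washed with 100 μL phosphate buffer, impregnated with Meltilex, and counted on a Microbeta counter with background correction.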

Among the data in patent US6972287B1, “Method of inhibiting amyloid protein aggregation and imaging amyloid deposits” (Pfizer Inc., priority 1999, dated 2005) are IC50 and melting point values, retold here.

By IC50 is commonly meant the concentration that gives 50% inhibition. What is called melting point is the temperature, or range, at which the solid turns liquid.

Values joined by “and” are separate entries in the source; they are usually repeats but may differ in a detail not shown here. Identical values can stand only once.

T1 sequence (P05067 672-711 limits assumed): as above

`O=C(O)c1cccnc1Nc1ccc(CCc2ccc(Cl)c(Cl)c2)cc1` [Example 72, 2-{4-[2-(3,4-Dichloro-phenyl)-ethyl]-phenylamino}-nicotinic acid] showed a melting point of 168 to 171 °C. Besides, the IC50 on Aβ(1-40) [1] is 2 µM and 2.5 µM. For the same compound, the IC50 against Aβ (1-42) was 74.8 µM. Further, on Aβ(1-40) [2], the IC50 is 40 µM and 15 µM and 12 µM. This compound had a 50% inhibitory concentration (IC50) at Aβ (1-40) peptide greater than 60 µM.

In turn, `CCCCN1CCc2cc(C=C3SC(=S)N(CC(=O)O)C3=O)ccc21` [Example 56, {5-[(1-Butyl-2,3-dihydro-1H-indol-5-yl)methylidene]-4-oxo-2-thioxothiazolidin-3-yl}acetic acid] gave a melting point greater than 250 °C. At Aβ(1-40) [1], the IC50 turned out to be 3 µM. Further, the IC50 against Aβ (1-42) came out at 11.5 µM. Further, on Aβ(1-40) [2], the IC50 is greater than 100 µM. In addition, 30 µM corresponded to half-maximal inhibition at Aβ (1-40) peptide (IC50).

In turn, `O=C(O)c1ccccc1Nc1ccc(CCCc2ccc(Cl)c(Cl)c2)cc1` [Example 9, 2-{4-[3-(3,4-Dichlorophenyl)-propyl]phenylamino}-benzoic acid] came in with a melting point of 120 to 126 °C. For the same compound, at Aβ(1-40) [1], the IC50 was 1 µM and 2 µM. In addition, the IC50 at Aβ (1-42) is 20.1 µM and 28.2 µM and 38.6 µM. In addition, the IC50 on Aβ(1-40) [2] was 20 µM and 30 µM and 52 µM and 40 µM. This compound also had an IC50 at Aβ (1-40) peptide of 75 µM.

In turn, `CCCCN(CCCC)c1ccc(CCc2ccc(Nc3ccccc3C(=O)O)cc2)cc1` [Example 5, 2-{4-[2-(4-Dibutylamino-phenyl)-ethyl]phenylamino}benzoic acid] returned a melting point of 115 to 117 °C. On Aβ(1-40) [1], the IC50 amounted to 4.5 µM. Also, at Aβ (1-42), the IC50 worked out at 10 µM. Moreover, the IC50 at Aβ(1-40) [2] is 70 µM and > 100 µM. For the same compound, the IC50 against Aβ (1-40) peptide was 74 µM.

In turn, `O=C(O)c1cccc(Nc2ccc(CCc3ccc(Cl)c(Cl)c3)cc2)c1` [Example 131, 3-{4-[2-(3,4-Dichloro-phenyl)-ethyl]-phenylamino}-benzoic acid] gave a melting point of 137 to 138 °C. In addition, the IC50 on Aβ(1-40) [1] was found to be 10 µM. Moreover, on Aβ (1-42), it took 93.5 µM to reach half-maximal inhibition (IC50). Further, at Aβ(1-40) [2], the IC50 was greater than 100 µM. In addition, the IC50 at Aβ (1-40) peptide was greater than 60 µM.

In turn, `O=C(O)c1ccccc1Nc1ccc(CCc2ccc(Oc3ccccc3)cc2)cc1` [Example 134, 2-{4-[2-(4-Phenoxy-phenyl)-ethyl]-phenylamino}-benzoic acid] returned a melting point of 153 to 154 °C. The IC50 at Aβ(1-40) [1] stood at 2 µM. The same compound gave an IC50 against Aβ (1-42) of 36.5 µM. Moreover, the IC50 on Aβ(1-40) [2] is greater than 100 µM. The compound further came in with an IC50 at Aβ (1-40) peptide greater than 60 µM.

Take `O=C(O)c1cc([N+](=O)[O-])ccc1Nc1ccc(CCCc2ccc(Cl)c(Cl)c2)cc1` [Example 15, 2-{4-[3-(3,4-Dichlorophenyl)propyl]phenylanino}-5-nitrobenzoic acid]: the melting point lay within 153 to 155 °C. Also, the IC50 on Aβ(1-40) [1] is 1 µM and 1.2 µM. The IC50 against Aβ (1-42) is 8.52 µM and 7.26 µM and 7.07 µM. The IC50 at Aβ(1-40) [2] was 16 µM and 12 µM and 15 µM and 11 µM. The IC50 on Aβ (1-40) peptide was > 60 µM and 7 µM.

On to `COc1cc(CCc2ccc(Nc3ccccc3C(=O)O)cc2)cc(OC)c1OC` [Example 133, 2-{4-[2-(3,4,5-Trimethoxy-phenyl)-ethyl]-phenylamino}-benzoic acid], for which the melting point was 146 to 147 °C. The IC50 at Aβ(1-40) [1] is greater than 100 µM. For the same compound, at Aβ (1-42), the IC50 was greater than 100 µM. Further, on Aβ(1-40) [2], the IC50 is greater than 100 µM. Also, the IC50 at Aβ (1-40) peptide is greater than 60 µM.

As to `O=C(O)c1cc([N+](=O)[O-])ccc1Nc1ccc(CCc2cccc(Cl)c2)cc1` [Example 73, 2-{4-[2-(3-Chloro-phenyl)-ethyl]-phenylamino}-5-nitro-benzoic acid], the melting point fell in the range of 192.5 to 194.5 °C. The IC50 at Aβ(1-40) [1] came to 0.3 µM. The compound also came in with an IC50 at Aβ (1-42) of 9.43 µM. In addition, the IC50 at Aβ(1-40) [2] is 25 µM and 35 µM and 40 µM. The IC50 on Aβ (1-40) peptide was greater than 60 µM.

`CC(=O)Nc1cccc(CCc2ccc(Nc3ccccc3C(=O)O)cc2)c1` [Example 36, 2-{4-[2-(3-Acetylaminopheny)ethyl]phenylamino}benzoic acid] returned a melting point of 213 to 215 °C. Besides, the IC50 on Aβ(1-40) [1] was greater than 100 µM. Further, the IC50 on Aβ (1-42) is greater than 100 µM. In addition, the IC50 on Aβ(1-40) [2] was greater than 100 µM. Further, the IC50 against Aβ (1-40) peptide stood at 149 µM.

Compound `O=C(O)c1cc([N+](=O)[O-])ccc1Nc1ccc(CCc2ccc(Cl)c(Cl)c2)cc1` [Example 2, 2-{4-[2-(3,4-Dichloro-phenyl)-ethyl]phenylamino}-5-nitrobenzoic acid] displayed a melting point of 214 to 217 °C. Also, at Aβ(1-40) [1], the IC50 was 1 µM and 1.5 µM. For the same compound, at Aβ (1-42), the midpoint of inhibition, the IC50, lay at 6.52 µM. For the same compound, the IC50 at Aβ(1-40) [2] was 2.2 µM and 4.1 µM (2×) and 12 µM and 4.5 µM. For the same compound, the IC50 against Aβ (1-40) peptide amounted to 70 µM.

The compound `O=C(O)c1cc([N+](=O)[O-])ccc1Nc1ccc(CCc2ccccc2Cl)cc1` [Example 76, 2-{4-[2-(2-Chloro-phenyl)-ethyl]-phenylamino}-5-nitrobenzoic acid] gave a melting point of 236 to 238 °C. The IC50 on Aβ(1-40) [1] came to 0.5 µM. The IC50 at Aβ (1-42) stood at 8.59 µM. The IC50 on Aβ(1-40) [2] was 3 µM. At Aβ (1-40) peptide, this compound showed an IC50 greater than 60 µM.

The compound `Nc1ccc(CCc2ccc(Nc3ccccc3C(=O)O)cc2)cc1` [Example 24] returned a melting point of 198 to 201 °C. On Aβ(1-40) [1], the IC50 was 20 µM. In addition, at Aβ (1-42), the IC50 was greater than 100 µM. In addition, the concentration for half-maximal inhibition (IC50) at Aβ(1-40) [2] is greater than 100 µM. In addition, the IC50 against Aβ (1-40) peptide was 91 µM.
